{"source": "patent US20230096766A1", "about": "“AMINO ACID HAVING FUNCTIONAL GROUP CAPABLE OF INTERMOLECULAR HYDROGEN BONDING, PEPTIDE COMPOUND CONTAINING SAME AND METHOD FOR PRODUCTION THEREOF” (Chugai Seiyaku Kabushiki Kaisha, priority 2018, published 2023)", "key": {"[1]": {"assay": "Actual measurement of pKa of amino acid side chains by titration (Sirius T3) on three-residue peptides", "type": "physicochemical", "conditions": "for basic pKa / pKa: measured by titration (Sirius T3), 25° C., 0.15M; for basic pKa: amino acid X in three-residue peptide ZMeGly-X-MeGly-pip (Table 24); for pKa: amino acid X in three-residue peptide ZMeGly-X-MeGly-pip (Table 24, second part)", "protocol": "pKas and basic pKas can be determined by a conventional method. For example, they can be measured by a method such as that described in Experimental Chemistry Lecture 5, “Thermal Measurements and Equilibrium”, p. 460 (edited by The Chemical Society of Japan, published by Maruzen Co., Ltd.). More specifically, they can be measured by a method described in Reference Example 3-1.\nHerein, measurement of pKas of amino acid side chains was carried out according to the following procedure.\nSirius T3 (Sirius Analytical Instruments Ltd., Forest Row, East Sussex, RH18 5DW, UK)\n0.15 M KCl was added to about 1 mg of a test substance as a powder or in about 100 μL of a 10 mM DMSO solution. When the test substance was a basic compound, 0.5 M HCl was added until pH 2 and the test substance was then titrated to pH 12 with 0.5 M KOH.\nWhen the test substance was an acidic compound, 0.5 M KOH was added until pH 12 and the test substance was then titrated to pH 2 with 0.5 M HCl.\nTitration operations were automatically performed by T3 manufactured by Sirius, and pKas were determined from the resulting titration curves using Sirius T3 Refinement software.\npKas were similarly determined using imipramine HCl, propranolol HCl, and warfarin as reference compounds, and were confirmed to be within the test results obtained in Sirius. pKas of amino acid side chains were determined by synthesizing a sequence in which the amino acid to be evaluated is introduced into the second residue (the position X in the following table) of a peptide composed of three residues as shown below."}, "Caco-2": {"system": "Caco-2", "assay": "Membrane permeability test of cyclic peptides (Caco-2, modified/improved method of WO 2018/124162)"}, "[2]": {"assay": "Membrane permeability test of cyclic peptides (Caco-2, modified/improved method of WO 2018/124162)", "conditions": "human, Caco-2, Caco-2 (cm/sec)"}, "[3]": {"conditions": "amino acid side chain, Sirius T3 titration"}, "[4]": {"conditions": "membrane permeability of cyclic peptides, Caco-2"}}, "note": "Like-named read-outs stand apart in the source and are kept apart here. Where a SMILES comes first, the peptide text is derived from it. Bridges are numbered along the chain shown (N, C = ends). [ ]: non-standard residue; d: D form. The star is where a group is joined. NMeHph(3-OMe-4-CONHMe) = CNC(=O)c1ccc(CC[C@H](NC)C(=O)O)cc1OC; NMeAbu(3,3-F2-piperidino) = CN[C@@H](CCN1CCCC(F)(F)C1)C(=O)O; Ethyl(2-morpholino) = C1CN(CC*)CCO1; NMeF = CN[C@@H](Cc1ccccc1)C(=O)O; NMeD = CN[C@@H](CC(=O)O)C(=O)O; CH2CONHtBu = CC(C)(C)NC(=O)C*; NMeL = CN[C@@H](CC(C)C)C(=O)O; NMeV = CN[C@H](C(=O)O)C(C)C; NMeAbu = CC[C@H](NC)C(=O)O; NMeA = CN[C@@H](C)C(=O)O; Piperidide = C1CCN(*)CC1; NBuGly = CCCCNCC(=O)O; NPrGly = CCCNCC(=O)O; Bn = c1ccc(C*)cc1; Sar = CNCC(=O)O; tBu = CC(C)(C)*"}
{"compound": "CN[C@@H](CCN1CCOCC1)C(=O)O", "note": "[MeAbu(Mor)]", "values": [{"measurement": "basic pKa", "setting": "[1]", "result": 6.8}]}
{"compound": "CS(=O)(=O)NC(=O)CC[C@H](N)C(=O)O", "note": "[Gln(Ms)]", "values": [{"measurement": "measured pKa", "setting": "[1]; [3]", "result": 3.8}]}
{"compound": "CN[C@@H](CCc1noc(=O)[nH]1)C(=O)O", "note": "[MeAbu(5-Oxo-Odz)]", "values": [{"measurement": "pKa", "setting": "[1]", "result": 5.7}]}
{"compound": "CC(C)C[C@@H]1NC(=O)[C@H](Cc2ccccc2)N(C)C(=O)[C@@H](C)NC(=O)C[C@@H](C(=O)N2CCCCC2)N(C)C(=O)[C@H](Cc2ccccc2)N(C)C(=O)[C@H](Cc2ccccc2)N(C)C(=O)[C@H](COC(C)(C)C)NC(=O)[C@H](CC(C)C)N(C)C(=O)CN(C)C(=O)[C@H]([C@@H](C)O)NC(=O)[C@H](CC(C)C)N(C)C1=O", "note": "[pd224] ([dA][NMeF]L[NMeL]T[Sar][NMeL]S(tBu)[NMeF][NMeF][NMeD]-Piperidide; lactam N-11)", "values": [{"measurement": "Papp", "setting": "Caco-2, Caco-2 (cm/sec)", "result": 1, "unit": "×10⁻⁶ cm/s"}]}
{"compound": "CC(C)C[C@@H]1NC(=O)[C@H](Cc2ccccc2)N(C)C(=O)[C@@H](C(C)C)NC(=O)C[C@@H](C(=O)N2CCCCC2)NC(=O)[C@H](C(C)C)N(C)C(=O)[C@H](Cc2ccccc2)N(C)C(=O)[C@H](COC(C)(C)C)NC(=O)[C@H](CCN2CCCC(F)(F)C2)N(C)C(=O)CN(C)C(=O)[C@H]([C@@H](C)O)NC(=O)[C@H](CC(C)C)N(C)C1=O", "note": "[pd387] ([dV][NMeF]L[NMeL]T[Sar][NMeAbu(3,3-F2-piperidino)]S(tBu)[NMeF][NMeV]D-Piperidide; lactam N-11)", "values": [{"measurement": "Papp", "setting": "Caco-2, Caco-2", "result": 3.5, "unit": "×10⁻⁶ cm/s"}]}
{"compound": "CCCN1CC(=O)N(C)[C@@H](CC(C)C)C(=O)N[C@@H](CC(C)C)C(=O)N(C)[C@@H](Cc2ccccc2)C(=O)N(C)[C@@H](C)C(=O)N[C@H](C(=O)N2CCCCC2)CC(=O)N[C@H](CC(C)C)C(=O)N(C)[C@@H](Cc2ccccc2)C(=O)N[C@@H](COCC(=O)NC(C)(C)C)C(=O)N(C)[C@@H](CC(C)C)C(=O)N[C@@H]([C@@H](C)O)C1=O", "note": "[AP11] ([dL][NMeF]S(CH2CONHtBu)[NMeL]T[NPrGly][NMeL]L[NMeF][NMeA]D-Piperidide; lactam N-11)", "values": [{"measurement": "Caco-2", "setting": "Caco-2; [4]", "result": "1.1e-06", "unit": "cm/s"}]}
{"compound": "CC[C@H](C)[C@@H]1NC(=O)[C@H](CC(C)C)N(C)C(=O)CN(C)C(=O)[C@H]([C@@H](C)O)NC(=O)[C@H](Cc2ccccc2)N(C)C(=O)[C@H](CC(C)C)NC(=O)[C@H](Cc2ccccc2)N(C)C(=O)[C@@H](CC(C)C)NC(=O)C[C@@H](C(=O)N2CCCCC2)NC(=O)[C@H](CC(C)C)N(C)C(=O)[C@H](Cc2ccccc2)N(C)C1=O", "note": "[pd225] ([dL][NMeF]L[NMeF]T[Sar][NMeL]I[NMeF][NMeL]D-Piperidide; lactam N-11)", "values": [{"measurement": "Papp", "setting": "Caco-2, Caco-2 (cm/sec)", "result": 1, "unit": "×10⁻⁶ cm/s"}]}
{"compound": "CNC(=O)c1ccc(CC[C@H]2C(=O)N[C@@H]([C@@H](C)O)C(=O)N(C)CC(=O)N(C)[C@@H](CC(C)C)C(=O)N[C@@H](CC(C)C)C(=O)N(C)[C@@H](Cc3ccccc3)C(=O)N(C)[C@@H](CC(C)C)C(=O)N[C@H](C(=O)N3CCCCC3)CC(=O)N[C@H](C(C)C)C(=O)N(C)[C@@H](CC(C)C)C(=O)N[C@@H](C(C)C)C(=O)N2C)cc1OC", "note": "[AP226] ([dV][NMeL]V[NMeHph(3-OMe-4-CONHMe)]T[Sar][NMeL]L[NMeF][NMeL]D-Piperidide; lactam N-11)", "values": [{"measurement": "Papp", "setting": "[2]; [4]", "result": 0.57, "unit": "×10⁻⁶ cm/s"}, {"measurement": "Caco-2", "setting": "Caco-2; [4]", "result": "1e-06", "unit": "cm/s"}]}
{"compound": "CC(C)(CO)COC[C@H](N)C(=O)O", "note": "[Ser(2-Me2-PrOH), O-(3-hydroxy-2,2-dimethylpropyl)-L-serine]", "values": [{"measurement": "membrane permeability compared with counterpart peptides", "setting": "Caco-2; pairwise comparison of matched cyclic peptides, result in words", "result": "tended to have better membrane permeability than Ser(nPrOH)"}]}
{"compound": "CN(C)CCOC[C@H](N)C(=O)O", "note": "[Ser(Et-2-NMe2)]", "values": [{"measurement": "measured basic pKa", "setting": "[1]; [3]", "result": 9.1}]}
{"compound": "CCCCN1CC(=O)N(C)[C@@H](CC(C)C)C(=O)N[C@H](C(=O)N2CCCCC2)CC(=O)N(C)[C@@H](CC)C(=O)N[C@@H](CC(C)C)C(=O)N(C)[C@@H](CC(C)C)C(=O)N(C)[C@@H](Cc2ccccc2)C(=O)N[C@@H](COCCN2CCOCC2)C(=O)N(C)[C@@H](CC)C(=O)N(C)[C@@H](CC(C)C)C(=O)N[C@@H]([C@@H](C)O)C1=O", "note": "[pd482] ([NMeAbu]L[NMeL][NMeF]S(Ethyl(2-morpholino))[NMeAbu][NMeL]T[NBuGly][NMeL]D-Piperidide; lactam N-11)", "values": [{"measurement": "Caco-2", "setting": "Caco-2; Papp, membrane permeability, cyclic peptides comprising MeAbu(pip-4-F2), MeAbu(Mor), Ser(Et-2-Mor), MeAbu(pip-3-F2) or Abu(5-Oxo-Odz) (Table 29)", "result": "1.1e-06", "unit": "cm/s"}]}
{"compound": "CC(C)C[C@@H]1NC(=O)CN(C)C(=O)[C@H](Cc2ccccc2)N(C)C(=O)[C@@H](C)NC(=O)C[C@@H](C(=O)N2CCCCC2)NC(=O)[C@H](Cc2ccccc2)N(C)C(=O)[C@H](Cc2ccccc2)N(C)C(=O)[C@H](COC(C)(C)C)NC(=O)[C@H](CC(C)C)N(C)C(=O)[C@H](Cc2ccccc2)NC(=O)[C@H]([C@@H](C)O)NC1=O", "note": "[pd248] ([dA][NMeF][Sar]LTF[NMeL]S(tBu)[NMeF][NMeF]D-Piperidide; lactam N-11)", "values": [{"measurement": "Papp", "setting": "Caco-2, Caco-2 (cm/sec) Papp", "result": 0.014, "unit": "×10⁻⁶ cm/s"}]}
{"compound": "CC(C)C[C@@H]1NC(=O)[C@H](C)N(C)C(=O)C[C@@H](C(=O)N2CCCCC2)NC(=O)[C@H](CC(C)C)N(C)C(=O)CN(C)C(=O)[C@H]([C@@H](C)O)NC(=O)[C@H](C)N(C)C(=O)[C@H](Cc2ccccc2)N(C)C(=O)[C@H](COCc2ccccc2)NC(=O)[C@H](Cc2ccccc2)N(C)C(=O)[C@H](CC(C)C)N(C)C1=O", "note": "[pd179] ([NMeA]L[NMeL][NMeF]S(Bn)[NMeF][NMeA]T[Sar][NMeL]D-Piperidide; lactam N-11)", "values": [{"measurement": "Papp", "setting": "[2]; Table 35, Papp, sequences having Papp ≥ 1.0 × 10^−6 at ARC = 3", "result": 2, "unit": "×10⁻⁶ cm/s"}, {"measurement": "Caco-2", "setting": "Caco-2; Table 36, Papp, sequences having Papp ≥ 1.0 × 10^−6 at ARC = 3", "result": "2e-06", "unit": "cm/s"}]}
{"compound": "CN[C@@H](CCN1CCC(F)(F)CC1)C(=O)O", "note": "[MeAbu(pip-4-F2)]", "values": [{"measurement": "basic pKa", "setting": "[1]", "result": 6.7}]}
{"compound": "CN[C@@H](CCN1CCCC(F)(F)C1)C(=O)O", "note": "[MeAbu(pip-3-F2)]", "values": [{"measurement": "pKa", "setting": "[1]", "result": 5.7}]}
{"compound": "N[C@@H](COCCN1CCOCC1)C(=O)O", "note": "[Ser(Et-2-Mor)]", "values": [{"measurement": "basic pKa", "setting": "[1]", "result": 7.2}]}
